# Measured values taken from patent US20250340837A1, “CELLS” (University of Geneva, priority 2022, published 2025).
# Assays:
# C57Bl/6 ANPGs = test: Stemness reprogramming screen with pharmacological modulators plus CHIR99021; assay type: cell-based, mouse; conditions: 30 days, with CHIR99021 3 μM
# Experimental: (C) C57Bl/6 ANPGs were plated at 10,000 cells/well of a 96 well plate and treated with the WNT agonist (CHIR99021; 3 μM) and the above mentioned compounds (B) for 30 days. Graph representing the average growth (% ANPGs cultured in presence of GF+CHIR) after 30 days. […] Data represent the average±SEM of three independent experiments.
# C57Bl/6 ANPGs were plated at 10,000 cells/well of a 96 well plate and treated with the WNT agonist (CHIR99021; 3 μM) and various modulator(s).
# C57Bl/6 otic progenitors = test: Stemness reprogramming and regeneration in hair cell progenitors; assay type: cell-based, mouse; conditions: 30 days, with CHIR99021 3 μM
# Experimental: C57Bl/6 otic progenitors were plated at 10,000 cells/well of a 96 well plate and treated with WNT agonist (CHIR99021; 3 μM) and the above mentioned compounds for 30 days. (A) Graph representing the average growth (% otic progenitors cultured in presence of GF+CHIR) after 30 days. […] Data represent the average±SEM of three independent experiments.
# For reprogramming stemness of auditory hair cells, C57Bl/6 otic progenitors were plated at 10,000 cells/well of a 96 well plate and treated with WNT agonist (CHIR99021; 3 μM) and the above mentioned compounds for 30 days.
# [1] = tested on: human fetal sphere-derived SGCs; test: Live Ca2+ imaging in human fetal sphere-derived SGCs; assay type: cell-based
# Text: (§1) To further explore the excitatory function of differentiated phoenix SGCs, Ca2+ mobilization was studied in response to several physiological stimuli, namely glutamate, ATP, and kainate (FIG. 4). […] Ionomycin, an ionophore facilitating the transport of divalent cations across cell membranes, and thapsigargin, inhibiting the SERCA pump and therefore the transfer of Ca^2+ toward endoplasmic reticulum, were used as positive controls (FIG. 4D). The excitatory pattern of phoenix SGCs was also compared with human fetal sphere-derived ones and mouse spiral ganglion explants using live Ca^2+ imaging. […] Therefore, at any passage and following differentiation, phoenix auditory SGCs resemble the auditory neuron physiology.
# [2] = tested on: mouse spiral ganglion explants; test: Live Ca2+ imaging in mouse spiral ganglion explants; assay type: cell-based
# Text: as §1
# phoenix auditory neurons = test: Induced Ca2+ cytosolic release (FLUO-8) in differentiated phoenix auditory neurons; assay type: cell-based, mouse; conditions: phoenix auditory neurons after 7 days of differentiation
# Experimental: (A-C) Kinetics of Ca^2+ transients induced by (A) Glutamate (higher trace for the higher concentration), (B) ATP (higher trace for the higher concentration), (C) Kainate in phoenix auditory neurons after 7 days of differentiation. Phoenix auditory neurons were loaded with Ca^2+ sensitive ratiometric probe (FLUO-8) and stimulated with increasing concentrations of glutamate ([…]), ATP (0.005-10 μM) or kainate (0.02-50 μM). (D) Dose response curves were extracted from the max-min amplitude values, allowing the determination of an EC50 value (in order of highest to lowest effect: Ionomycin, ATP, Glutamate, Thapsigargin and Kainate (no effect for Kainate). (E). Ionomycin and Thapsigargin were used as positive control. Data represent the average+/−SEM of 3 independent experiments.
# A total of 32,000 cells/well were differentiated to auditory neurons on a 96-well plate coated with Matrigel, as previously described (Rousset et al., 2020). Differentiated cells were loaded with FLUO-8 (Interchim), according to the manufacturer's protocol. After an incubation period of typically 45 min at 37° C. with the inducing agent or control, the induced cytosolic calcium release was assessed in a FDSS/pCELL Functional Drug Screening System (Hamamatsu). The neuronal kinetics of calcium release was followed over about 10 min following treatment, with one measure every 0.5 s.
# as §1
# Further, the impact of BDNF and NT-3 alone or in combination on phoenix auditory neurons' glutamatergic function was assessed. Phoenix neuroprogenitors were plated on poly-ornithine and laminin coated 96 well plates and differentiated for 7 days with or without BDNF and NT-3 alone or in combination. To assess effect of neurotrophins, the auditory neuron were stimulated twice with glutamate: first with 10 μM (EC90) and 10 min later with 100 μM, eliciting a maximal glutamatergic response (FIG. 15A). Traces show the Ca2+ mobilization kinetics with 50 ng/mLNT-3+25 ng/mL BDNF (top light curve) or without neurotrophins (bottom dark curve) upon glutamate stimulation as recorded with Ca2+ sensitive ratiometric probe (FLUO-8). Arrows show the max-min amplitude of the response following the first (10 μM) or the second (100 μM) glutamate stimulation. Heatmaps showing the effect of BDNF and NT-3 alone or in combination on Ca2+ release (min-max amplitude) induced by 10 μM glutamate (FIG. 15B) and 100 μM glutamate (FIG. 15C).
structure (smiles),measurement,setting,value
"COc1cc(-c2cc(-c3cccc(O)c3)cnc2N)cc(OC)c1OC [compound 48, K02288]","stemness reprogramming, average growth (% ANPGs cultured in presence of GF+CHIR)",C57Bl/6 ANPGs,hits
"COc1cc(-c2cc(-c3ccc(N4CCNCC4)cc3)cnc2C)cc(OC)c1OC [compound 51, LDN-214117]","stemness reprogramming, average growth (% otic progenitors cultured in presence of GF+CHIR)",C57Bl/6 otic progenitors,particularly good candidates
C=C(C)[C@H]1CN[C@H](C(=O)O)[C@H]1CC(=O)O [kainate],Evoked Ca2+ transients,[1],did not respond
same,Evoked Ca2+ transients,[2],did not respond
same,Induction of Ca2+ transients,phoenix auditory neurons,failed to induce Ca2+ excitatory transmission
same,Induction of Ca2+ transients,phoenix auditory neurons; listed as Kainate,no effect
